Entries after “also recorded” stand apart in the source; their conditions may differ.
How the values were obtained:
[1] = system: STING signaling; experiment: Luciferase live cell assay, type I IFN promoter in hTERT-pIFNβ-Glu cells after ISD transfection; format: cell-based, human
Procedure: Inhibition of IFNβ expression was measured by Luciferase induction at 24 hours after transfection of ISD, Mock is shown (210), ISD treatment only (220) was used as a control, according to an embodiment of the invention;
Example 1: Identification of small molecule antagonists of STING. In the presence of cytosolic DNA species, STING becomes activated to drive the transcription of cytokines such as type I IFN. Compounds binding to STING via TSA were subsequently examined for their ability to prevent cytosolic DNA species from activating the type I interferon (IFN) promoter, using a live cell assay. This assay comprised immortalized human fibroblasts that were stably transfected with the type I IFN promoter driving luciferase as well as the CMV promoter driving SEAP (hTERT-pIFNβ-Glu). The live cell assay has previously been disclosed in PCT/JS2019/025380 entitled IFN-βETA REPORTER SYSTEM FOR IMMORTALIZED PRIMARY CELLS inventor Glen N. Barber, which was filed Apr. 2, 2018 and published as WO2019195285, and which is herein incorporated by reference in its entirety and for all purposes. The ability of the small molecules to prevent activation of the type I IFN promoter and the transcription of luciferase, but not SEAP in response to cytosolic DNA species was assessed. The activation of STING, typically by CDNs, in turn activates the transcription factors NF-κB and IRF3, both of which are required to induce the transcriptional stimulation of the Type I IFN promoter, but not the CMV promoter as IRF3 and NF-kB transcription factor binding sites are not contained in the CMV promoter. The assay identified the small molecule Compound Y1 in the first screen (HTS), where the level of luciferase was not able to activate the type I IFN promoter or induce the expression of luciferase (see Table I).
Example 4: hTERT-BJ1 Telomerase Fibroblasts (hTERT) were originally purchased from Clontech and were cultured in 4:1 ratio of DMEM:Medium 199 supplement with 10% FBS, 4 mM L-Glutamine and 1 mM sodium pyruvate at 37° C. in a 5% CO2-humidified atmosphere. hTERT-BJ1 Telomerase Fibroblasts stably expressing the luciferase gene under the control of the interferon-beta promoter and SEAP gene under control of the CMV promoter) (hTERT-pIFNβ-Glu) were generated by the Barber laboratory.
Example 7: Luciferase assay: hTERT-BJ1 Telomerase Fibroblasts stably expressing the luciferase gene under the control of the interferon-beta promoter and SEAP gene under control of the CMV promoter) (hTERT-pIFNβ-Glu) were generated by the Barber laboratory. Luciferase assay was performed using Secrete-Pair Dual Luminescence Assay Kit from GeneCopoeia following the manufacturer's protocol.

[2] = system: STING signaling; experiment: qPCR of IFNβ1 / Cxcl10 in normal hTERT cells after ISD transfection; format: cell-based, human; conditions: normal hTERT cells stimulated with ISD; 50 μM, 25 μM or 5 μM
Procedure: (§1) Example 11: qPCR total RNA were reverse-transcribed using M-MLV Reverse Transcriptase (Promega). Real-time PCR was performed using Taqman Gene Expression Assay (Applied Biosystems) for innate immune genes and inflammatory cytokines.

[3] = system: STING signaling; experiment: Confocal analysis of STING trafficking and IRF3 translocation in hTERT cells; format: cell-based, human; conditions: 6 hours after ISD transfection
Procedure: FIG. 2E are photographs showing confocal analysis of STING trafficking using anti-Sting performed at 6 hours after ISD transfection with Y1+220/without 220, Mock is shown (210), ISD treatment only (220) was used as control, treatment same as in FIG. 2A, according to an embodiment of the invention;
Example 10: Immunofluorescence Microscopy: Cells were cultured and treated in their appropriate media on Lab-Tek II chamber slides. Cell were fixed with 4% paraformaldehyde for 15 minutes in at 37° C. and permeabilized with 0.05% Triton X-100 for 5 minutes at room temperature. Immunostaining was performed with rabbit-anti-STING polyclonal, rabbit-anti-IRF3 (Santa Cruz Biotechnology) or rabbit-anti-p65 (Cell Signaling) followed by fluorescence conjugated secondary antibodies (FITC-goat-anti-rabbit) (Invitrogen).

[4] = system: STING signaling; experiment: qPCR of Cxcl10 / Cxcl5 in MEF cells after ISD transfection; format: cell-based, murine
Procedure: MEFs were obtained from E13.5 embryos by a standard procedure. Bone Marrow Derived Macro-phages (BMDM) were isolated from hind-limb femurs of 8-10 weeks old WT and Trex1 KO (TKO) mice. The hematopoietic cells from the bone marrow were cultured in complete DMEM (Invitrogen) including 10 ng/ml of Mouse Recombinant Colony-Stimulating Factor (M-CSF, R&D Systems) for 10 to 14 days.
as §1

[5] = system: STING signaling; experiment: Western blot of STING, TBK1 and IRF3 phosphorylation in MEF cells; format: cell-based, murine; conditions: cytosolic DNA
Procedure: Example 8: Immunoblot analysis: Equal amounts of proteins were resolved on sodium dodecyl sulfate (SDS)-Polyacrylamide gels and then transferred to polyvinylidene fluoride (PVDF) membranes (Millipore). After blocking with 5% Blocking Reagent, membranes were incubated with various primary antibodies (and appropriate secondary antibodies). The image was resolved using an enhanced chemiluminescence system ECL (Thermo Scientific) and detected by autoradiography (Kodak). Antibodies: rabbit polyclonal antibody against STING was developed in our laboratory as described previously in Ishikawa et al, 2008; other antibodies were obtained from following sources: β-actin (Sigma Aldrich), p-IRF3 (Cell Signaling), IRF3 (Santa Cruz Biotechnology), p-p65 (Cell Signaling), p65 (Cell Signaling), p-TBK1 (Cell Signaling), TBK1 (Abcam), cGAS (Cell Signaling).

[6] = system: TREX1-deficient mice; experiment: Treatment of TREX1 knockout (TKO) mice: survival and heart histopathology; format: in vivo, mouse
Procedure: Example 12: Mouse Treatment: Trex1 Hetero knockout mice (Trex1^+/−) were generated by crossing the hetero mice. Mouse genotypes from tail biopsies were determined using Real Time PCR with specific probes designed for each gene by commercial vendor (Transnetyx). Trex1 KO (TKO) mice (4-5 weeks old) were intraperitoneally injected with 25 μg Z811 per mouse in 200 μL 1% DMSO in PBS. The mice were injected three times a week for 5 months. The survival rates were evaluated.
Example 13: Histopathology. Mice are sacrificed and the heart tissues were fixed in 10% formalin for 48 hours.

## Cc1cccc(C(=O)Nc2c(C#N)c3nc4ccccc4nc3n2CCc2ccccc2)c1Cl [Compound Y9, 2-chloro-N-[3-cyano-1-(2-phenylethyl)-1H-pyrrolo [2,3-β]quinoxalin-2-yl]-3-methylbenzamide]
[1]; hTERT-pIFNβ-Glu cells, 50 μM or 25 μM, in response to ISD
  inhibitory activity of the type I IFN promoter (luciferase induction): showed robust inhibitory activity of the type I IFN promoter
[1]; test of the 25 novel analogs
  criteria to inhibit STING dependent signaling (type I IFN promoter in human cells): found to meet the criteria to inhibit STING dependent signaling; also recorded: found to meet the criteria to inhibit STING dependent signaling and showed the most effective inhibitory activity
[2]
  production of STING-inducible cytokine Cxcl10 (qPCR): robustly inhibited
[3]
  IRF3 translocation (confocal analysis): reproducibly prevented STING trafficking and IRF3 phosphorylation
  STING trafficking (confocal analysis): reproducibly prevented STING trafficking and IRF3 phosphorylation
[4]
  Cxcl10 production in response to ISD (qPCR): impede the production of Cxcl10
[5]
  phosphorylation of TBK1, IRF3 and STING (Western blot): can prevent the phosphorylation of TBK1 and IRF3 as well as STING phosphorylation
[6]
  inflammation in the heart (H&E staining): Less inflammation in the heart
[6]; intraperitoneal, 25 μg/mouse, 5 months, compared to mock treated
  survival of TREX1-deficient mice: extend the survival of TREX1-deficient mice

— patent publication US12410174B1, “Small molecular inhibitors of sting signaling compositions and methods of use” (TYERELL IMMUNOTHERAPEUTICS INC, priority 2020, dated 2025)
